Assay results reported in patent publication US6207709A, “N-substituted-2-amino-4-phenyl-4-oxo-butanoic acid compounds having kynurenine-3-hydroxy base inhibitory activity” (Pharmacia & Upjohn S.p.A., priority 1996, dated 2001).
pIC50: −log10 of the molar value. Blank lines part the entries; values can stand above or below the compound they belong to.

Legend:
[1] = test system: N-methyl-D-aspartate (NMDA) receptor; details: cited from earlier work
neuronal cell cultures = details: relatively low QUIN concentrations; prolonged period of time or in combination with glutamate; cited from earlier work
[2] = cited from earlier work
kynurenine-3-hydroxylase = biological target: T1, kynurenine-3-hydroxylase (Rattus norvegicus, UniProt O88867); assay: Kynurenine-3-hydroxylase assay in the rat brain (homogenate); type: biochemical; details: L-kynurenine 50 μM, 60 min incubation, pH 7.5, read-out: IC 50, enzyme inhibition (rat brain)
T1 construct: evaluated in rat brain homogenate; from tissue; host or cells: rat brain homogenate (washed 12000 x g pellet)
Experimental: (A) Kynurenine-3-hydroxylase assay in the rat brain
Brain was homogenized in ice-cold 0.32 M sucrose and centrifuged at 12000×g for 30 min at 4° C. The pellet was washed three times with 0.32 M sucrose by centrifugation and suspended in 0.14 M KCl in 20 mM K-phosphate buffer at pH 7 (1 g tissue in 2 ml buffer).
The reaction mixture contained: 75 μl of suspended homogenate; 100 μl of substrate solution containing 50 mM K-phosphate buffer pH 7.5, 2 mM MgCl2, 0.4 mM NADPH and 50 μM L-kynurenine (final concentration): 25 μl of different concentrations of inhibitor solutions). The reaction was stopped by addition of 200 μl of 1 M HClO4 after 60 min incubation. L-3-hydroxykynurenine formed was quantified by HPLC with coulometric detection at a working voltage of +0.2 V. The column was a 10 cm C18 reversed phase (3 μm. The mobile phase consisted of 950 ml distilled water, 20 ml acetonitrile, 9 ml triethylamine, 5.9 ml phosphoric acid, 100 mg sodium EDTA and 1.5 g heptanesulfonic acid. The flow rate was 1 ml/min.

[3] = test system: ionotropic excitatory aminoacid receptors; details: preferentially acting at the glycine co-agonist site of the NMDA receptor; cited from earlier work

T1 sequence (O88867 whole entry): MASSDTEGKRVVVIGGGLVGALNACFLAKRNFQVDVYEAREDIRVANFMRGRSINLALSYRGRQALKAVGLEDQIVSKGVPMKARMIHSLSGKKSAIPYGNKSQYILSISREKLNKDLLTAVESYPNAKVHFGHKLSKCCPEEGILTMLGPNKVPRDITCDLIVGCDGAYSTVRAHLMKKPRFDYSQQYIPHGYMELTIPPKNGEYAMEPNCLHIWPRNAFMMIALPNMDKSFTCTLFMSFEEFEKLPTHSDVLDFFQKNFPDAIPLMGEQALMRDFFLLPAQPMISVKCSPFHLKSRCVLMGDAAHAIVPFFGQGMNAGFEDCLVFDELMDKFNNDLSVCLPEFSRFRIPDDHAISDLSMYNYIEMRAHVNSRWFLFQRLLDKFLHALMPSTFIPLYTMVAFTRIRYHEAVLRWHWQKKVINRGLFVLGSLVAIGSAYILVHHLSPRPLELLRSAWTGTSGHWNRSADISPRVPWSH

Structure (SMILES): O=C(O)c1cccnc1C(=O)O [QUIN, quinolinic acid]
- agonism at NMDA receptor (in words) [1]: highly selective agonist
- neurotoxicity in neuronal cell cultures (in words) (neuronal cell cultures): neurotoxic
- effect in vivo (in words) [2]: produce convulsions and axon sparing lesions

Structure (SMILES): O=C(CC(NC(=O)C(F)(F)F)C(=O)O)c1ccc(Cl)c(Cl)c1 (racemic) [FCE 29256, (R,S)-N-trifluoroacetyl-2-amino-4-oxo-4-(3',4'-dichlorophenyl)butanoic acid]
- pIC50 (kynurenine-3-hydroxylase): 6.85

Structure (SMILES): O=C(O)c1cc(=O)c2ccccc2[nH]1 [KYNA, kynurenic acid]
- antagonism at ionotropic excitatory aminoacid receptors (in words) [3]: broad spectrum antagonist

Continued, values first:

- pIC50 (kynurenine-3-hydroxylase): 6.57
Structure (SMILES): O=C(CC(NC(=O)C(F)(F)F)C(=O)O)c1ccc(F)c(F)c1 (racemic) [FCE 29434, (R,S)-N-trifluoroacetyl-2-amino-4-oxo-4-(3',4'-difluorophenyl)butanoic acid]

- pIC50 (kynurenine-3-hydroxylase): 6.62
Structure (SMILES): O=C(C[C@H](NC(=O)C(F)(F)F)C(=O)O)c1ccc(Cl)c(Cl)c1 [FCE 29435, (S)-N-trifluoroacetyl-2-amino-4-oxo-4-(3',4'-dichlorophenyl)butanoic acid]
